The assay concerns the target T1, Nav1.7 (or SCN9A) channel (Homo sapiens, UniProt Q15858).
T1 construct: expressed in transfected cells
The assay is described as follows: Nav1.7 (hSCN9A) block, whole-cell electrophysiology on the PatchXpress platform. In kind it is cell-based. As to conditions: estimated IC50 from single point electrophysiology data, HEK cells stably expressing hSCN9A, prepulse to V1/2, read-out: Nav1.7 EIC50. The procedure: The ability of the compounds of formula (I) to block the Nav1.7 (or SCN9A) channel were measured using the assay described below.
Human Embryonic Kidney (HEK) cells were transfected with an hSCN9A construct using lipofectamine reagent (Invitrogen), using standard techniques. Cells stably expressing the hSCN9A constructs were identified by their resistance to G-418 (400 μg/ml). Clones were screened for expression using the whole-cell voltage-clamp technique.
HEK cells stably transfected with hSCN9A were maintained in DMEM medium supplemented with 10% heat-inactivated fetal bovine serum and 400 μg/ml G-418 in an incubator at 37° C. with a humidified atmosphere of 10% CO2. For HTS, cells were harvested from flasks by trypsinization and replated in an appropriate multi-well plate (typically 96 or 384 wells/plate) such that confluence would be achieved within 24 hours of plating. For electrophysiological studies, cells were removed from the culture flask by brief trypsinization and re-plated at low density onto glass cover slips. Cells were typically used for electrophysiological experiments within 24 to 72 hours after plating.
Cover slips containing HEK cells expressing hSCN9A were placed in a bath on the stage of an inverted microscope and perfused (approximately 1 ml/minutes) with extracellular solution of the following composition: 138 mM NaCl, 2 mM CaCl2, 5.4 mM KCl, 1 mM MgCl2, 10 mM glucose, and 10 mM HEPES, pH 7.4, with NaOH. […] The osmolarity of the extracellular and intracellular solutions was 300 mOsm/kg and 295 mOsm/kg, respectively. All recordings were made at room temperature (22-24° C.) using AXOPATCH 200B amplifiers and PCLAMP software (Axon Instruments, Burlingame, Calif.).
hSCN9A currents in HEK cells were measured using the whole-cell configuration of the patch-clamp technique (Hamill et al., 1981). Uncompensated series resistance was typically 2 to 5 mega ohms and >85% series resistance compensation was routinely achieved. As a result, voltage errors were negligible and no correction was applied. Current records were acquired at 20 to 50 KHz and filtered at 5 to 10 KHz.
HEK cells stably transfected with hSCN9A were viewed under Hoffman contrast optics and placed in front of an array of flow pipes emitting either control or compound-containing extracellular solutions. All compounds were dissolved in dimethyl sulfoxide to make 10 mM stock solutions, which were then diluted into extracellular solution to attain the final concentrations desired. […] The voltage-dependence of inactivation was determined by applying a series of depolarizing prepulses (8 sec long in 10 mV increments) from a negative holding potential. The voltage was then immediately stepped to 0 mV to assess the magnitude of the sodium current. Currents elicited at 0 mV were plotted as a function of prepulse potential to allow estimation of the voltage at which 50% of the channels were inactivated (midpoint of inactivation or V1/2). Compounds were tested for their ability to inhibit hSCN9A sodium channels by activating the channel with a 20 msec voltage step to 0 mV following an 8 second conditioning prepulse to the empirically determined V1/2. Compound effect (% inhibition) was determined by difference in current amplitude before and after application of test compounds. For ease of comparison, “estimated IC-50” (EIC50) values were calculated from single point electrophysiology data by the following equation, (tested concentration, uM)×(100−% inhibition/% inhibition). Inhibition values <20% and >80% were excluded from the calculation.
Electrophysiological assays were conducted with PatchXpress 7000 hardware and associated software (Molecular Devices Corp). All assay buffers and solutions were identical to those used in conventional whole-cell voltage clamp experiments described above. hSCN9A cells were grown as above to 50%-80% confluency and harvested by trypsinization. […]

In patent US9085517B2, “Sulfonamide derivatives” (Pfizer Limited, priority 2011, dated 2015) one finds IC50 data, which are given here for 16 compounds.

Where a name gives a salt, the structure may show the parent alone. Some results are limits rather than exact numbers.

T1 sequence (Q15858 whole entry): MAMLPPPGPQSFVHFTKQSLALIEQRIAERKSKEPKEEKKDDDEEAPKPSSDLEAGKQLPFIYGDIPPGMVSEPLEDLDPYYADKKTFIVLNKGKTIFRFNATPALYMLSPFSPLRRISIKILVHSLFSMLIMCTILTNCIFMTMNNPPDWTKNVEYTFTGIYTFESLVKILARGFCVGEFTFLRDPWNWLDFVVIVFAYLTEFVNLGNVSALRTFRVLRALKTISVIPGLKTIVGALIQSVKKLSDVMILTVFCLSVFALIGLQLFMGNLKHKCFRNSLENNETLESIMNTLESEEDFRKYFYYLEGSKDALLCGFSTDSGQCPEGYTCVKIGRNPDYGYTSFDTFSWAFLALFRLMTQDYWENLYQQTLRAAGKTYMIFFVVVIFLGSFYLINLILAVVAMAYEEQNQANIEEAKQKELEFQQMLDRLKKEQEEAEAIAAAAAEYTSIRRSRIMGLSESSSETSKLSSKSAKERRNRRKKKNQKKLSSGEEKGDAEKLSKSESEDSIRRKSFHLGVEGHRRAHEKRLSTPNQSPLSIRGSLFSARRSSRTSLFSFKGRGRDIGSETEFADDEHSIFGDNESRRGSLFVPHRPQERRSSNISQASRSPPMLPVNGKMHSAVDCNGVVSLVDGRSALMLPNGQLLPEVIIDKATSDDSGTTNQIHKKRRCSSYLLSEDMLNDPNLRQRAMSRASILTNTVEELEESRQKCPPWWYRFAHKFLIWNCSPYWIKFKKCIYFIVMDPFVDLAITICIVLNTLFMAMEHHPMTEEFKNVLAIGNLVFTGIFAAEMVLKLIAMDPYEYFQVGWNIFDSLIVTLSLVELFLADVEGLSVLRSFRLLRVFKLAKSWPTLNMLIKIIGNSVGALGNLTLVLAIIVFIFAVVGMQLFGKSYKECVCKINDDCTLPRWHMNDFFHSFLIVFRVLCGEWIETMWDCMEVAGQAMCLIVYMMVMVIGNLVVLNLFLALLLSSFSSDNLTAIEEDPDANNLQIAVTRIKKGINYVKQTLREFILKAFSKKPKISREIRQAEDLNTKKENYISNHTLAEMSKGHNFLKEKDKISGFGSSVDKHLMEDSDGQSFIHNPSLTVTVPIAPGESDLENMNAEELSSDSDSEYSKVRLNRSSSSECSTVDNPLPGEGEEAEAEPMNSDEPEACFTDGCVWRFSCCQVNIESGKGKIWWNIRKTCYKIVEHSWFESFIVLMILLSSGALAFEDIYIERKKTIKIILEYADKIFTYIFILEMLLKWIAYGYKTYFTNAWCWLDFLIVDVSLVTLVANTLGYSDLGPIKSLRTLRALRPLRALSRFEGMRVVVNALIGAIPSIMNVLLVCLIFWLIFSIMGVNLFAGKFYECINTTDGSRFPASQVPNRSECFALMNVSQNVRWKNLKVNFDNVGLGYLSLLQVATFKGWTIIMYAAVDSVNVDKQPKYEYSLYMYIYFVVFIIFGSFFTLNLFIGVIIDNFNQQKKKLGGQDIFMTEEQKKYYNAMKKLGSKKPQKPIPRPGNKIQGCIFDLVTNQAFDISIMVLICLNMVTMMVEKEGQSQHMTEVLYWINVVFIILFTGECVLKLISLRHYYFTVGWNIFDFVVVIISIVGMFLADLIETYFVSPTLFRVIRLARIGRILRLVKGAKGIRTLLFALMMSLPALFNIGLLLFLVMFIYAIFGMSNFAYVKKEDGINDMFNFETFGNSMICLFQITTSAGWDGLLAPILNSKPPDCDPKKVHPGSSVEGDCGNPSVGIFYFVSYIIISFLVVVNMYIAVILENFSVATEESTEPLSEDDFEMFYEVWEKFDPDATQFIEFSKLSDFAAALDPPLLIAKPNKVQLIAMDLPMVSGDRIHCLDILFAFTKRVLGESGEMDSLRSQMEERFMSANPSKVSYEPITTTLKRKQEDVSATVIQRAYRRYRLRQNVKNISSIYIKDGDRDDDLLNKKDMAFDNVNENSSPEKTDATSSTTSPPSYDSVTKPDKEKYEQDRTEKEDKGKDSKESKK

For `CN(C)S(=O)(=O)NC(=O)c1cc(F)c(COc2ccc(Cl)c(Cl)c2)cc1F` [Example 10, 4-[(3,4-dichlorophenoxy)methyl]-N-[(dimethylamino)sulfonyl]-2,5-difluorobenzamide], the IC50 was 350 nM. Turning to `CC(C)Oc1ncc(OCc2cc(F)c(C(=O)NS(=O)(=O)N(C)C)cc2F)cc1Cl` [Example 1, 4-{[(5-Chloro-6-isopropoxypyridin-3-yl)oxy]methyl}-N-[(dimethylamino)sulfonyl]-2,5-difluorobenzamide], the IC50 was 240 nM.

In the case of `CN(C)S(=O)(=O)NC(=O)c1cc(F)c(COc2ccc(F)c(Cl)c2)cc1F` [Example 11, 4-[(3-chloro-4-fluorophenoxy)methyl]-N-[(dimethylamino)sulfonyl]-2,5-difluorobenzamide], the IC50 is 580 nM.

In the case of `CN(C)S(=O)(=O)NC(=O)c1cc(F)c(COc2ccc(Cl)c(C(F)(F)F)c2)cc1F` [Example 6, 4-{[4-chloro-3-(trifluoromethyl)phenoxy]methyl}-N-[(dimethylamino)sulfonyl]-2,5-difluorobenzamide], the IC50 is 200 nM. The result for `O=C(NS(=O)(=O)N1CCC1)c1cc(Cl)c(COc2cnc(C3CC3)c(Cl)c2)cc1F` [Example 15, N-(azetidin-1-ylsulfonyl)-5-chloro-4-{[(5-chloro-6-cyclopropylpyridin-3-yl)oxy]methyl}-2-fluorobenzamide] reads 90 nM; that for `CN(C)S(=O)(=O)NC(=O)c1cc(F)c(COc2ccc(Cl)c(F)c2)cc1F` [Example 8, 4-[(4-chloro-3-fluorophenoxy)methyl]-N-[(dimethylamino)sulfonyl]-2,5-difluorobenzamide], 850 nM.

With `CN(C)S(=O)(=O)NC(=O)c1cc(F)c(COc2ccc(C#N)c(Cl)c2)cc1F` [Example 9, 4-[(3-chloro-4-cyanophenoxy)methyl]-N-[(dimethylamino)sulfonyl]-2,5-difluorobenzamide], the IC50 was over 3000 nM. `CN(C)S(=O)(=O)NC(=O)c1cc(Cl)c(COc2cnc(C3CC3)c(Cl)c2)cc1F` [Example 14, 5-chloro-4-{[(5-chloro-6-cyclopropylpyridin-3-yl)oxyl]methyl}-N-[(dimethylamino)sulfonyl]-2-fluorobenzamide diethylamine salt]: the IC50 was 420 nM. Turning to `CN(C)S(=O)(=O)NC(=O)c1ccc(COc2ccc(C(F)(F)F)c(Cl)c2)cc1` [Example 5, 4-{[3-chloro-4-(trifluoromethyl)phenoxy]methyl}-N-[(dimethylamino)sulfonyl]benzamide], the IC50 is 920 nM.

With `CN(C)S(=O)(=O)NC(=O)c1cc(F)c(OCc2ccc(Cl)c(Cl)c2)cc1F` [Example 3, 4-[(3,4-Dichlorobenzyl)oxy]-N-[(dimethylamino)sulfonyl]-2,5-difluorobenzamide], the IC50 is 1300 nM.

For the compound `CN(C)S(=O)(=O)NC(=O)c1cc(F)c(COc2ccc(C(F)(F)F)c(Cl)c2)cc1F` [Example 2, 4-{[3-Chloro-4-(trifluoromethyl)phenoxy]methyl}-N-[(dimethylamino)sulfonyl]-2,5-difluorobenzamide], the IC50 was 110 nM. On to `CC(C)Oc1ncc(COc2cc(F)c(C(=O)NS(=O)(=O)N(C)C)cc2F)cc1Cl` [Example 7, 4-[(5-chloro-6-isopropoxypyridin-3-yl)methoxy]-N-[(dimethylamino)sulfonyl]-2,5-difluorobenzamide], for which the IC50 was 8300 nM. On to `CN(C)S(=O)(=O)NC(=O)c1ccc(COc2ccc(Cl)c(C(F)(F)F)c2)cc1` [Example 4, 4-{[4-chloro-3-(trifluoromethyl)phenoxy]methyl}-N-[(dimethylamino)sulfonyl]benzamide], for which the IC50 is 1500 nM. The result for `CN(C)S(=O)(=O)NC(=O)c1ccc(OCc2ccc(Cl)c(Cl)c2)cc1` [Example 12, 4-[(3,4-dichlorobenzyl)oxy]-N-[(dimethylamino)sulfonyl]benzamide] reads 2300 nM; that for `O=C(NS(=O)(=O)N1CC(F)(F)C1)c1cc(Cl)c(COc2cnc(C3CC3)c(Cl)c2)cc1F` [Example 16, 5-chloro-4-{[(5-chloro-6-cyclopropylpyridin-3-yl)oxy]methyl}-N-[(3,3-difluoroazetidin-1-yl)sulfonyl]-2-fluorobenzamide], 270 nM. The result for `CC(C)Oc1ncc(OCc2cc(F)c(C(=O)NS(=O)(=O)N3CCC3)cc2F)cc1Cl` [Example 13, N-(azetidin-1-ylsulfonyl)-4-{[(5-chloro-6-isopropoxypyridin-3-yl)oxy]methyl}-2,5-difluorobenzamide] reads 150 nM.
